Experiments:
Conditions in all cases: human; call rule not given here
Hepatotoxicity [1] = experiment: FDA HLAED, liver enzyme composite activity
Hepatotoxicity [2] = experiment: FDA HLAED, gamma-glutamyl transferase (GGT) increase
Hepatotoxicity [3] = experiment: FDA HLAED, alkaline phosphatase increase
Hepatotoxicity [4] = experiment: FDA HLAED, serum glutamic pyruvic transaminase (SGPT) increase
Hepatotoxicity [5] = experiment: FDA HLAED, serum glutamic oxaloacetic transaminase (SGOT) increase
Hepatotoxicity [6] = experiment: FDA HLAED, lactate dehydrogenase (LDH) increase
Throughout, for GGT Increase - Index Value: reference of the scale not given here.
Throughout, for LDH Increase - Index Value: reference of the scale not given here.

Compound	Composite Activity - Active (Hepatotoxicity [1])	Composite Activity - Marginal (Hepatotoxicity [1])	Composite Activity - Score (Hepatotoxicity [1])	GGT Increase - Activity Score (Hepatotoxicity [2])	GGT Increase - Index Value (Hepatotoxicity [2])	GGT Increase - Number of Reports (Hepatotoxicity [2])	Alkaline Phosphatase Increase - Activity Score (Hepatotoxicity [3])	Alkaline Phosphatase Increase - Index Value (Hepatotoxicity [3])	Alkaline Phosphatase Increase - Number of Reports (Hepatotoxicity [3])	SGPT Increase - Activity Score (Hepatotoxicity [4])	SGPT Increase - Index Value (Hepatotoxicity [4])	SGPT Increase - Number of Reports (Hepatotoxicity [4])	SGOT Increase - Activity Score (Hepatotoxicity [5])	SGOT Increase - Index Value (Hepatotoxicity [5])	SGOT Increase - Number of Reports (Hepatotoxicity [5])	LDH Increase - Activity Score (Hepatotoxicity [6])	LDH Increase - Index Value (Hepatotoxicity [6])	LDH Increase - Number of Reports (Hepatotoxicity [6])	other results
N=C(N)NCC1COC2(CCCCC2)O1 (stereo not drawn)	0	0	Inactive	Inactive	0	< 4	Inactive	0	< 4	Inactive	0	< 4	Inactive	0	< 4	Inactive	0	< 4	–
CCCCC(=O)N(Cc1ccc(-c2ccccc2-c2nnn[nH]2)cc1)[C@H](C(=O)O)C(C)C	0	0	Inactive	Inactive	2.5	< 4	Inactive	0	< 4	Inactive	7.6	< 4	Inactive	5	< 4	Inactive	0	< 4	–
CC(C)(C)NC(=O)[C@@H]1C[C@@H]2CCCC[C@@H]2CN1C[C@@H](O)[C@H](Cc1ccccc1)NC(=O)[C@H](CC(N)=O)NC(=O)c1ccc2ccccc2n1	–	–	–	Inactive	0	< 4	Inactive	0	< 4	Inactive	0	< 4	Inactive	0	< 4	Inactive	0	< 4	Composite Activity - Active (Hepatotoxicity [1]; Liver): 0; Composite Activity - Marginal (Hepatotoxicity [1]; Liver): 0; Composite Activity - Score (Hepatotoxicity [1]; Liver): Inactive
O=C(O)[C@@H](S)[C@@H](S)C(=O)O	4	0	Active	Active	87.7	< 4	Active	175.4	>= 4	Active	131.6	< 4	Active	175.4	>= 4	Inactive	43.9	< 4	–
COc1ccc(-c2ccc3cc(C(=O)O)ccc3c2)cc1C12CC3CC(CC(C3)C1)C2	0	0	Inactive	Inactive	0	< 4	Inactive	0	< 4	Inactive	0	< 4	Inactive	0	< 4	Inactive	0	< 4	–
CNS(=O)(=O)Cc1ccc2[nH]cc(CCN(C)C)c2c1	0	0	Inactive	Inactive	0.1	< 4	Inactive	0.1	>= 4	Inactive	0.3	>= 4	Inactive	0.3	>= 4	Inactive	0.1	>= 4	–
